From US9567320B2, “Pyridazinone-amides derivatives” (Merck Patent GmbH, priority 2013, dated 2017)

Experiments:
IRAK1 = IRAK1 (Homo sapiens (Human), UniProt P51617); experiment: IRAK1 enzymatic assay; format: biochemical; details: human recombinant His-TEV-IRAK1, ATP 1 μM, FlashPlate
Protocol: IRAK1 is a human purified recombinant enzyme (His-TEV-IRAK1 (194-712)) In this assay, IRAK-1 hydrolyses ATP and autophosphorylates.
Measurement of IRAK-1 inhibition is performed in streptavidin coated 384 well FlashPlate (PerkinElmer #SMP410A).
(§1) His-TEV-IRAK-1 (15 ng/well), ATP (1 μM, [^33P]ATP 0.25 μCi/well) and compounds in DMSO (range of concentrations from 20 μM to 1 nM) or controls (2% DMSO) are incubated for 3 hours at 30° C. in assay buffer: Hepes pH7.0 50 mM, Fatty acid-free BSA 0.1%, Dithiothreitol DTT 2 mM, MgCl2 10 mM, EGTA 0.5 mM, Triton-X-100 0.01%. Kinase reaction is stopped by addition of EDTA. Supernatant is discarded, plates are washed three times with 150 mM NaCl and radioactivity is then measured in a Microbeta Trilux reader.

IRAK4 = IRAK4 (Homo sapiens (Human), UniProt Q9NWZ3); experiment: IRAK4 enzymatic assay; format: biochemical; details: human recombinant His-TEV-IRAK4, ATP 2 μM, STK1-biotin peptide, FlashPlate
IRAK4, sequence (Q9NWZ3 whole entry): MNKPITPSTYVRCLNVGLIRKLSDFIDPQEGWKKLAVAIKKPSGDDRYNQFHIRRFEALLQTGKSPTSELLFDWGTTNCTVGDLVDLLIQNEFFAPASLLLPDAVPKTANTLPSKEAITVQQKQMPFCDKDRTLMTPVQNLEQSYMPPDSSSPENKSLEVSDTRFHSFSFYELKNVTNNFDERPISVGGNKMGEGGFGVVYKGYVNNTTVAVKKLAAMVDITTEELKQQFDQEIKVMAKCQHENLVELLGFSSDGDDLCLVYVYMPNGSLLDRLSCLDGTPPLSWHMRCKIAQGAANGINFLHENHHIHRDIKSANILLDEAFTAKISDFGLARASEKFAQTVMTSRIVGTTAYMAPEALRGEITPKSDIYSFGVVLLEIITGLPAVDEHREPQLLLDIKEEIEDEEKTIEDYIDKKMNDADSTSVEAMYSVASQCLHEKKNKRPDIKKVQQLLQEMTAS
Protocol: IRAK4 is a human purified recombinant enzyme (His-TEV-IRAK1 (194-712)
IRAK4 hydrolyses ATP, autophosphorylates and phosphorylates a Serine/Threonine generic peptidic substrate (STK: 61ST1BLC from CisBio International based in Bagnols/Cèze FR).
as §1, with “Measurement of IRAK-4 inhibition is performed in streptavidin coated 384 well FlashPlate (PerkinElmer #SMP410A). His-TEV-IRAK4 (20” for “His-TEV-IRAK-1 (15”, “(2” for “(1”, “μCi/well), STK1-biotin peptide (300 nM)” for “μCi/well)”, “Tween-20 0.01%, MnCl2 5 mM.” for “Triton-X-100 0.01%.”

IRAK1, sequence (P51617 194-712): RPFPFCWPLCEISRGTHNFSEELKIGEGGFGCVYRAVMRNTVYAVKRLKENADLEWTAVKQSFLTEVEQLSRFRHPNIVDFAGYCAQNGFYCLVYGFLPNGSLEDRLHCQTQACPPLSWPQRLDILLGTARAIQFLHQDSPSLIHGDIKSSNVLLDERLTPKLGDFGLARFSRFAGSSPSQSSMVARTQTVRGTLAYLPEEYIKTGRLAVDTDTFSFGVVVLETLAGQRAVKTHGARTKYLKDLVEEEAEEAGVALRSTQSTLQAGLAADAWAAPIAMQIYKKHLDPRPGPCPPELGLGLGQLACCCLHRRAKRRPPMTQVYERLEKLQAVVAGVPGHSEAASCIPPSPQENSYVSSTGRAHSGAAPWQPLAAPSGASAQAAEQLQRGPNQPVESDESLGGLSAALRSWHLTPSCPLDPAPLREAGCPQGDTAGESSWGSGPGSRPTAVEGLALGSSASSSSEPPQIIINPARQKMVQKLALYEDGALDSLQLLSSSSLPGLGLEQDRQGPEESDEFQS

Compound	IC50 (IRAK1) [nM]	IC50 (IRAK4) [nM]
CN(C)C(=O)Cc1ccc2[nH]c(NC(=O)c3cccc(Cn4nc(-c5cccnc5)ccc4=O)c3)nc2c1 [Example 6, N-(5-Dimethylcarbamoylmethyl-1H-benzoimidazol-2-yl)-3-(6-oxo-3-pyridin-3-yl-6H-pyridazin-1-ylmethyl)-benzamide]	< 100	< 100
O=C(Nc1nc2ccccc2[nH]1)c1cccc(Cn2nc(-c3ccc(CO)nc3)ccc2=O)c1 [Example 7, N-(1H-Benzoimidazol-2-yl)-3-[3-(6-hydroxymethyl-pyridin-3-yl)-6-oxo-6H-pyridazin-1-ylmethyl]-benzamide]	–	< 100
CN(C)Cc1ccc(-c2ccc(=O)n(Cc3cccc(C(=O)Nc4nc5ccccc5[nH]4)c3)n2)cn1 [Example 11, N-(1H-benzo[d]imidazol-2-yl)-3-((3-(6-((dimethylamino)methyl)pyridin-3-yl)-6-oxopyridazin-1(6H)-yl)methyl)benzamide]	1000 to 5000	1000 to 5000
Cc1cc(-c2ccc(=O)n(Cc3cccc(C(=O)Nc4nc5ccccc5[nH]4)c3)n2)cnn1 [Example 13, N-(1H-benzo[d]imidazol-2-yl)-3-((3-(6-methylpyridazin-4-yl)-6-oxopyridazin-1(6H)-yl)methyl)benzamide]	100 to 1000	100 to 1000
CN(C)Cc1cncc(-c2ccc(=O)n(Cc3cccc(C(=O)Nc4nc5ccccc5[nH]4)c3)n2)c1 [Example 14, N-(1H-benzo[d]imidazol-2-yl)-3-((3-(5-((dimethylamino)methyl)pyridin-3-yl)-6-oxopyridazin-1(6H)-yl)methyl)benzamide]	–	1000 to 5000
COc1cc2nc(NC(=O)c3cccc(Cn4nc(-c5cccnc5)ccc4=O)c3)[nH]c2cc1OC [Example 15, N-(5,6-dimethoxy-1H-benzo[d]imidazol-2-yl)-3-((6-oxo-3-(pyridin-3-yl)pyridazin-1(6H)-yl)methyl)benzamide]	100 to 1000	< 100
O=C(Nc1nc2ccccc2[nH]1)c1cccc(Cn2nc(-c3cncc(CO)c3)ccc2=O)c1 [Example 17, N-(1H-Benzoimidazol-2-yl)-3-[3-(5-hydroxymethyl-pyridin-3-yl)-6-oxo-6H-pyridazin-1-ylmethyl]-benzamide]	< 100	< 100

Results, then the molecule that gave them:

IC50 (IRAK1) [nM]	IC50 (IRAK4) [nM]	Compound
100 to 1000	< 100	CC(C)(C)C(=O)Oc1ccc2[nH]c(NC(=O)c3cccc(Cn4nc(-c5cccnc5)ccc4=O)c3)nc2c1 [Example 1, 2,2-Dimethyl-propionic acid 2-[3-(6-oxo-3-pyridin-3-yl-6H-pyridazin-1-ylmethyl)-benzoylamino]-1H-benzoimidazol-5-yl ester]
< 100	100 to 1000	O=C(Nc1nc2ccccc2[nH]1)c1cccc(Cn2nc(-c3cccnc3)ccc2=O)c1 [Example 2, N-(1H-Benzoimidazol-2-yl)-3-(6-oxo-3-pyridin-3-yl-6H-pyridazin-1-ylmethyl)-benzamide]
–	1000 to 5000	Cn1c(NC(=O)c2cccc(Cn3nc(-c4cccnc4)ccc3=O)c2)nc2ccccc21 [Example 3, N-(1-Methyl-1H-benzoimidazol-2-yl)-3-(6-oxo-3-pyridin-3-yl-6H-pyridazin-1-ylmethyl)-benzamide]
–	1000 to 5000	COC(=O)c1ccc2[nH]c(NC(=O)c3cccc(Cn4nc(-c5cccnc5)ccc4=O)c3)nc2c1 [Example 4, 2-[3-(6-Oxo-3-pyridin-3-yl-6H-pyridazin-1-ylmethyl)-benzoylamino]-1H-benzoimidazole-5-carboxylic acid methyl ester]
< 100	< 100	O=C(Nc1nc2cc(CO)ccc2[nH]1)c1cccc(Cn2nc(-c3cccnc3)ccc2=O)c1 [Example 5, N-(5-Hydroxymethyl-1H-benzoimidazol-2-yl)-3-(6-oxo-3-pyridin-3-yl-6H-pyridazin-1-ylmethyl)-benzamide]
100 to 1000	100 to 1000	O=C(Nc1nc2ccccc2[nH]1)c1cccc(Cn2nc(-c3cncnc3)ccc2=O)c1 [Example 8, N-(1H-Benzoimidazol-2-yl)-3-(6-oxo-3-pyrimidin-5-yl-6H-pyridazin-1-ylmethyl)-benzamide]
< 100	< 100	Nc1ccc(-c2ccc(=O)n(Cc3cccc(C(=O)Nc4nc5ccccc5[nH]4)c3)n2)cn1 [Example 9, 3-[3-(6-Amino-pyridin-3-yl)-6-oxo-6H-pyridazin-1-ylmethyl]-N-(1H-benzoimidazol-2-yl)-benzamide]
100 to 1000	–	Cc1cc(=O)n(Cc2cccc(C(=O)Nc3nc4ccccc4[nH]3)c2)nc1-c1cccnc1 [Example 10]
–	100 to 1000	Cc1ccncc1-c1ccc(=O)n(Cc2cccc(C(=O)Nc3nc4ccccc4[nH]3)c2)n1 [Example 12, N-(1H-benzo[d]imidazol-2-yl)-3-((3-(4-methylpyridin-3-yl)-6-oxopyridazin-1(6H)-yl)methyl)benzamide]
< 100	100 to 1000	COc1ccc2[nH]c(NC(=O)c3cccc(Cn4nc(-c5cccnc5)ccc4=O)c3)nc2c1 [Example 16, N-(5-methoxy-1H-benzo[d]imidazol-2-yl)-3-((6-oxo-3-(pyridin-3-yl)pyridazin-1(6H)-yl)methyl)benzamide]
